The numbers were not newly measured in US20240002438A1, “MELANOCORTIN LIGANDS AND METHODS OF USE THEREOF” (REGENTS OF THE UNIVERSITY OF MINNESOTA, priority 2021, published 2024), which cites them from elsewhere.

The target in data set [1] is T1, MC3R (Homo sapiens, UniProt P41968). As to conditions: unable to displace at up to this concentration; read-out: displacement of NDP-MSH at the MC3R; cited from earlier work.
The target of data set [2] is T2, MC5R (Homo sapiens, UniProt P33032). As to conditions: Bednarek, J. Med. Chem. 2007; read-out: concentration activating the MC5R; cited from earlier work.
T2 sequence (P33032 whole entry, species assumed): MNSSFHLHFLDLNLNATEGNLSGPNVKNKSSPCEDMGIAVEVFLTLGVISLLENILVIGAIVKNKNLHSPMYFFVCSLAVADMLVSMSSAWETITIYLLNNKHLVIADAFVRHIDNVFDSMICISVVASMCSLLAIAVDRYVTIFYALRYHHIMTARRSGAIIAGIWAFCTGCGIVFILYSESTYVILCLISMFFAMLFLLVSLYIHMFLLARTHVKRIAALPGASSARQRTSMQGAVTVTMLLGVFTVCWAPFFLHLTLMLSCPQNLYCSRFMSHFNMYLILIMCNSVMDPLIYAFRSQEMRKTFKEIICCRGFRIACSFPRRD
Data set [3] addresses T3, MC1R (Homo sapiens, UniProt Q01726). The note with it: unable to displace at up to this concentration; read-out: displacement of NDP-MSH at the MC1R; cited from earlier work.
The target in data set [4] is T1, MC3R. The note with it: at 2 μM; cited from earlier work.
The target in data set [5] is T4, MC4R (Homo sapiens, UniProt P32245). As to conditions: at 2 μM; cited from earlier work.
T4 sequence (P32245 whole entry, species assumed): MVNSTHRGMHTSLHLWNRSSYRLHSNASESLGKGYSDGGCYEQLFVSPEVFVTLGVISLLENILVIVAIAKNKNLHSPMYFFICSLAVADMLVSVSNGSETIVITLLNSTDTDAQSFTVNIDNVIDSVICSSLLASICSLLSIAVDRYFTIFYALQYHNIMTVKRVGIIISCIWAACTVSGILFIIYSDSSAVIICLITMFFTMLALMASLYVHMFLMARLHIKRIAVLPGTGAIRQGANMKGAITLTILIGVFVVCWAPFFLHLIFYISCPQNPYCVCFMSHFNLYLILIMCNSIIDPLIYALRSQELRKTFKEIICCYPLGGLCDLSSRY
Data set [6] deals with T3, MC1R. The note with it: at 2 μM; cited from earlier work.
Data set [7] addresses T4, MC4R. The note with it: unable to displace at up to this concentration; read-out: displacement of NDP-MSH at the MC4R; cited from earlier work.
The target in data set [8] is T2, MC5R. The note with it: Bednarek, J. Med. Chem. 2007; read-out: concentration displacing radiolabeled NDP-MSH at the MC5R; cited from earlier work.

T3 sequence (Q01726 whole entry, species assumed): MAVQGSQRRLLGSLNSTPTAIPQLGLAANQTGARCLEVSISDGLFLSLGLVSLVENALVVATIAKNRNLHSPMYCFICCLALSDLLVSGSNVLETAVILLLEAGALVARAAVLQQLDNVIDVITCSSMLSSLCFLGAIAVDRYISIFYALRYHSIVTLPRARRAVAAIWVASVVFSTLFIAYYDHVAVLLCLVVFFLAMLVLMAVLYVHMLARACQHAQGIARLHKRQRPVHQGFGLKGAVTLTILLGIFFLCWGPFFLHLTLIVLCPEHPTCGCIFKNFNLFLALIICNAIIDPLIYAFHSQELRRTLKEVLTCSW
T1 sequence (P41968 whole entry, species assumed): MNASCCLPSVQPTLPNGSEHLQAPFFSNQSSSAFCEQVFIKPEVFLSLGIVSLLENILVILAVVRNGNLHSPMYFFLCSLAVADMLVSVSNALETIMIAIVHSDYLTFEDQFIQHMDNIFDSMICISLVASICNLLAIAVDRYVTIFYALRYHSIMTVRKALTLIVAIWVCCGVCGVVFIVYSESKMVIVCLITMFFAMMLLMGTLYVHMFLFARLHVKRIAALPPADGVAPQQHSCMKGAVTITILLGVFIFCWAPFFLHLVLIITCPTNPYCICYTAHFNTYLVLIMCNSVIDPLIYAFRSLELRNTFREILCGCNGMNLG

As for Ac-Nle-c[Asp-Oic-DBip-Pip-Trp-Lys]-NH2, the IC50 in data set [1] is above 5000 nM; in data set [3], above 5000 nM; in data set [7], above 5000 nM; in data set [8], 0.95 nM. In addition, the EC50 in data set [2] was 0.99 nM. Also, the “activation of the MC3R” value in data set [4] is “up to 40%”. The “activation of the MC4R” value in data set [5] was “up to 40%”. Further, in data set [6], the “activation of the MC1R” value is recorded as “up to 40%”.
